The structures appear in SMILES notation.

The target in one series is T1, human CRF receptor (Homo sapiens, UniProt P34998).
T1 construct: expressed in transfected cells; host or cells: CHO cells (membrane fraction)
T1 sequence (P34998 24-415): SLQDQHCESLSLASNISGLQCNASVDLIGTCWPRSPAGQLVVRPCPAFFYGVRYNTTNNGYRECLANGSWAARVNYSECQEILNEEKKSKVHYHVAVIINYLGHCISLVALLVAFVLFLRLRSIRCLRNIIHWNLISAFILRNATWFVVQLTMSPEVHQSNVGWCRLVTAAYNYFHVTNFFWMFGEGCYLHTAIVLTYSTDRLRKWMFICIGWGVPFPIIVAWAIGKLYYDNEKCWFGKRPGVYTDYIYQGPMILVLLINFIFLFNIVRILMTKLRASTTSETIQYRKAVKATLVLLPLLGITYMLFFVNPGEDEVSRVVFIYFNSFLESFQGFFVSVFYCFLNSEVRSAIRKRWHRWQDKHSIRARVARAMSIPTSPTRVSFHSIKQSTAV
As to the kind of experiment: Measurement of CRF Binding Inhibitory Rate (receptor binding experiment with 125I-CRF). Particulars: human CRF receptor expressing CHO cellular membrane fraction; 50 pM ovine 125I-CRF; 0.05 nM to 10 μM of compound; room temperature 1.5 hr; read-out: IC50 values (CRF binding inhibition). How it is done: Measurement of CRF Binding Inhibitory Rate
A receptor binding experiment was carried out using a human CRF receptor expressing CHO cellular membrane fraction and ovine CRF, [^125I]-tyr^0(^125I-CRF). 1000 nM of a test compound was incubated with 1 μg of human CRF receptor expressing CHO cellular membrane fraction and 50 pM of ^125I-CRF in a binding assay buffer (50 mM Tris-HCl, 5 mM EDTA, 10 mM MgCl2, 0.05% CHAPS, 0.1% BSA, 0.5 mM PMSF, 0.1 μg/mL pepstatin, 20 μg/mL leupeptin, pH 7.5). In addition, for measuring nonspecific binding (NSB), 0.1 μM unlabelled human Urocortin was incubated with 5 μg of human CRF receptor expressing CHO cellular membrane fraction and 50 pM of ^125I-CRF in a binding assay buffer. After a binding reaction was carried out at room temperature for 1.5 hr, the membrane was entrapped on a glass filter (UniFilter plate GF-C/Perkin Elmer) by suction filtration using a cell harvester (Perkin Elmer), and washed with ice-cooled 50 mM Tris-HCl (pH 7.5). After drying the glass filter, a liquid scintillation cocktail (Microscinti 0, Perkin Elmer) was added, and the radioactivity of ^125I-CRF remaining on a glass filter was measured using Topcount (Perkin Elmer).
(TB-SB)/(TB-NSB)×100 (SB: radioactivity when a compound is added, TB: maximum binding radioactivity, NSB: nonspecific binding radioactivity) were calculated to obtain binding inhibitory rates under the range of the presence from 0.05 nM to 10 μM of each compounds. The IC50 values were calculated by using GraphPad Prism software.
On to `CCC(CC)c1ccc(Cl)c2nc(Nc3c(C)cc(Cl)cc3OC)[nH]c12` [Example 67, 4-Chloro-N-(4-chloro-2-methoxy-6-methylphenyl)-7-(1-ethylpropyl)-1H-benzimidazol-2-amine], for which the concentration for half-maximal inhibition (IC50) – broadly, the point on the concentration scale where inhibition reaches its midpoint – was below 1000 nM.
On the same count and under the same terms, with `CCC(CC)c1ccc(O)c2nc(Nc3c(C)cc(Cl)cc3Cl)n(C)c12` [Example 90, 2-[(2,4-Dichloro-6-methylphenyl)amino]-7-(1-ethylpropyl)-1-methyl-1H-benzimidazol-4-ol] the figure was below 1000 nM; with `CCC(CC)c1ccc(OC)c2nc(Oc3ccc(OC(F)(F)F)cc3Cl)n(C)c12` [Example 1, 2-[2-Chloro-4-(trifluoromethoxy)phenoxy]-7-(1-ethylpropyl)-4-methoxy-1-methyl-1H-benzimidazole], below 1000 nM.
On the same count and under the same terms, with `CCC(CC)c1ccc(OC)c2nc(Oc3ncc(Br)cc3C)n(C)c12` [Example 8, 2-[(5-Bromo-3-methylpyridin-2-yl)oxy]-7-(1-ethylpropyl)-4-methoxy-1-methyl-1H-benzimidazole] the figure was below 1000 nM; with `CCC(CC)c1ccc(Cl)c2nc(Oc3c(Cl)cc(Cl)cc3[Si](C)(C)C)n(C)c12` [Example 60, 4-Chloro-2-[2,4-dichloro-6-(trimethylsilyl)phenoxy]-7-(1-ethylpropyl)-1-methyl-1H-benzimidazole], below 1000 nM.

Tested on in another series: not given
Assay: not given
Details: not given
For `CCC(CC)c1ccc(Cl)c2nc(Nc3c(C)cc(Cl)cc3Br)n(C)c12` [Example 49, N-(2-Bromo-4-chloro-6-methylphenyl)-4-chloro-7-(1-ethylpropyl)-1-methyl-1H-benzimidazol-2-amine], the melting point (as a rule, the temperature, or range, at which the solid turns liquid) lay in the range of 232 to 233 °C.
On the same count and under the same terms, with `CCC(CC)c1ccc(OC)c2nc(Nc3ccc(Cl)cc3N(C)C)n(C)c12` [Example 21, 4-Chloro-N^1-[7-(1-ethylpropyl)-4-methoxy-1-methyl-1H-benzimidazol-2-yl]-N^2,N^2-dimethylbenzene-1,2-diamine] the figure was 47 to 49 °C; with `CCC(CC(=O)O)c1ccc(Cl)c2nc(Oc3c(C)cc(Cl)cc3Cl)n(C)c12` (centres unmarked) [Example 99, 3-[4-Chloro-2-(2,4-dichloro-6-methylphenoxy)-1-methyl-1H-benzimidazol-7-yl]pentanoic acid], 201 to 202 °C.
On to `CCC(CC)c1ccc(Cl)c2nc(Nc3c(C)cc(-n4cccn4)cc3OC)n(C)c12` [Example 57, 4-Chloro-7-(1-ethylpropyl)-N-[2-methoxy-6-methyl-4-(1H-pyrazol-1-yl)phenyl]-1-methyl-1H-benzimidazol-2-amine], for which the melting point lay in the range of 237 to 239 °C.
`CCOc1ccc(C(CC)CC)c2c1nc(Oc1c(C)cc(Cl)cc1Cl)n2C` [Example 73, 2-(2,4-Dichloro-6-methylphenoxy)-4-ethoxy-7-(1-ethylpropyl)-1-methyl-1H-benzimidazole] displayed a melting point of 116 to 117 °C.
In turn, `CCOc1ccc(C(CC)CC)c2c1nc(Oc1ccc(Cl)cc1Br)n2C` [Example 72, 2-(2-Bromo-4-chlorophenoxy)-4-ethoxy-7-(1-ethylpropyl)-1-methyl-1H-benzimidazole] displayed a melting point of 93 to 94 °C.
In turn, `CCC(CC)c1ccc(Cl)c2nc(Nc3c(C)cc([S+](C)[O-])cc3OC)n(C)c12` (centres unmarked) [Example 46, 4-Chloro-7-(1-ethylpropyl)-N-[2-methoxy-6-methyl-4-(methylsulfinyl)phenyl]-1-methyl-1H-benzimidazol-2-amine] yielded a melting point of 222 to 223 °C.
In turn, `CCc1ccc(C(CC)CC)c2c1nc(Oc1c(C)cc(Cl)cc1Cl)n2C` [Example 71, 2-(2,4-Dichloro-6-methylphenoxy)-4-ethyl-7-(1-ethylpropyl)-1-methyl-1H-benzimidazole] displayed a melting point of 96 to 97 °C.
Still for that read-out and setting: the same measure for `CCC(CC)c1ccc(OC)c2nc(Oc3ccc(Cl)cc3CN(C)C)n(C)c12` [Example 9, 1-(5-Chloro-2-{[7-(1-ethylpropyl)-4-methoxy-1-methyl-1H-benzimidazol-2-yl]oxy}phenyl)-N,N-dimethylmethanamine]: 121 to 123 °C; for `CCC(CC)c1ccc(Cl)c2nc(Nc3c(C)cc(-n4ccc(C(F)(F)F)n4)cc3OC)n(C)c12` [Example 58, 4-Chloro-7-(1-ethylpropyl)-N-{2-methoxy-6-methyl-4-[3-(trifluoromethyl)-1H-pyrazol-1-yl]phenyl}-1-methyl-1H-benzimidazol-2-amine]: 249 to 251 °C.
Same read-out and setting: the same measure for `CCC(CC)c1ccc(Cl)c2nc(Nc3c(C)cc(S(C)(=O)=O)cc3OC)n(C)c12` [Example 47, 4-Chloro-7-(1-ethylpropyl)-N-[2-methoxy-6-methyl-4-(methylsulfonyl)phenyl]-1-methyl-1H-benzimidazol-2-amine]: 234 to 236 °C; for `CCC(CC)c1ccc(Cl)c2nc(Oc3c(C)cc(Br)cc3Cl)n(C)c12` [Example 33, 2-(4-Bromo-2-chloro-6-methylphenoxy)-4-chloro-7-(1-ethylpropyl)-1-methyl-1H-benzimidazole]: 163 to 164 °C; for `CCC(CC)c1ccc(OC)c2nc(Nc3ccc(Cl)cc3C(F)(F)F)n(C)c12` [Example 17, N-[4-Chloro-2-(trifluoromethyl)phenyl]-7-(1-ethylpropyl)-4-methoxy-1-methyl-1H-benzimidazol-2-amine]: 122 to 123 °C.
On the same count and under the same terms, with `CCC(CC)c1ccc(Cl)c2nc(Oc3c(Cl)cc(Cl)cc3Br)n(C)c12` [Example 23, 2-(2-Bromo-4,6-dichlorophenoxy)-4-chloro-7-(1-ethylpropyl)-1-methyl-1H-benzimidazole] the figure was 165 to 167 °C; with `CCC(CC)c1ccc(Cl)c2nc(Oc3c(Cl)cc(OC(F)(F)F)cc3Br)n(C)c12` [Example 41, 2-[2-Bromo-6-chloro-4-(trifluoromethoxy)phenoxy]-4-chloro-7-(1-ethylpropyl)-1-methyl-1H-benzimidazole], 149 to 151 °C.
Take `CCC(CC)c1ccc(Cl)c2nc(Oc3c(C)cc([Si](C)(C)C)cc3Cl)n(C)c12`: the melting point is 146 to 148 °C.
For the compound `CCC(CC)c1ccc(Cl)c2nc(Oc3cccc4c3CN(C)C4)n(C)c12` [Example 54, 4-Chloro-7-(1-ethylpropyl)-1-methyl-2-[(2-methyl-2,3-dihydro-1H-isoindol-4-yl)oxy]-1H-benzimidazole], the melting point lay in the range of 99 to 100 °C.
The same measure, in the same setting: the same measure for `CCC(CC)c1ccc(OC)c2nc(Oc3ccc(OC(F)(F)F)cc3-n3ccnc3)n(C)c12` [Example 82, 7-(1-Ethylpropyl)-2-[2-(1H-imidazol-1-yl)-4-(trifluoromethoxy)phenoxy]-4-methoxy-1-methyl-1H-benzimidazole]: 168 to 169 °C; for `CCC(CC)c1ccc(Cl)c2nc(Oc3c(Cl)cc(Cl)cc3NC)n(C)c12` [Example 28, 3,5-Dichloro-2-{[4-chloro-7-(1-ethylpropyl)-1-methyl-1H-benzimidazol-2-yl]oxy}-N-methylaniline]: 162 to 163 °C.
Take `CCC(CC)c1ccc(OC)c2nc(Nc3ccc(OC(F)(F)F)cc3Cl)n(C)c12` [Example 18, N-[2-Chloro-4-(trifluoromethoxy)phenyl]-7-(1-ethylpropyl)-4-methoxy-1-methyl-1H-benzimidazol-2-amine]: the melting point is 175 to 177 °C.
Take `CCC(CC)c1ccc(OC)c2nc(Nc3ccc(C(F)(F)F)cc3Cl)n(C)c12` [Example 16, N-[2-Chloro-4-(trifluoromethyl)phenyl]-7-(1-ethylpropyl)-4-methoxy-1-methyl-1H-benzimidazol-2-amine]: the melting point was in the range of 170 to 171 °C.
On the same count and under the same terms, the same measure for `CCC(CC)c1ccc(OC)c2nc(Oc3ccc(C)nc3C(F)(F)F)n(C)c12` [Example 11, 7-(1-Ethylpropyl)-4-methoxy-1-methyl-2-{[6-methyl-2-(trifluoromethyl)pyridin-3-yl]oxy}-1H-benzimidazole]: 135 to 137 °C; for `CCC(CC)c1ccc(Cl)c2nc(Nc3ccc(Cl)cc3Cl)n(CCO)c12` [Example 100, 2-[4-Chloro-2-[(2,4-dichlorophenyl)amino]-7-(1-ethylpropyl)-1H-benzimidazol-1-yl]ethanol]: 192 to 193 °C.
On the same count and under the same terms, with `CCC(CC)c1ccc(Cl)c2nc(Nc3c(C)cc(C(N)=O)cc3OC)n(C)c12` [Example 48, 4-{[4-Chloro-7-(1-ethylpropyl)-1-methyl-1H-benzimidazol-2-yl]amino}-3-methoxy-5-methylbenzamide] the figure was 298 to 299 °C.

(Values after patent US20100056515A1, “BENZIMIDAZOLE COMPOUNDS” (priority 2006, published 2010).)
